Assay results taken from patent US20250127905A1, “GLUTARIMIDE COMPOUND AND USE THEREOF” (MEDSHINE DISCOVERY INC., priority 2021, published 2025).
Counter-ions that a name gives are not always drawn.

Tests used:
[1] = Pharmacokinetic evaluation in cynomolgus monkeys; format: in vivo
Description: (§1) In this study, male cynomolgus monkeys were selected as test animals, and LC/MS/MS method was used to quantify plasma concentrations of the test compound intravenously injected or intragastrically administered to cynomolgus monkeys at different time points, so as to evaluate the pharmacokinetic profile of the test drug in cynomolgus monkeys.
Cynomolgus monkeys (male, 2 to 5 kg, Hainan Jingang Biotech Co., Ltd.).
A clarified solution of the test compound was slowly injected into cynomolgus monkeys (feeding) via the peripheral vein (vehicle: 5% DMSO/10% Solutol/85% H2O), or intragastrically administered into cynomolgus monkeys (feeding). For intravenous injection, 0.5 mL of blood was collected from the peripheral vein at 0 h (pre-administration) and 0.083 h, 0.25 h, 0.5 h, 1 h, 2 h, 4 h, 6 h, 8 h, and 24 h after administration, placed in an anticoagulant tube added with EDTA-2K, and centrifuged at 3200 g for 10 minutes at 2 to 8° C. to separate the supernatant. For oral administration, 0.5 mL of blood was collected from the peripheral vein at 0 h (pre-administration) and 0.083 h, 0.25 h, 0.5 h, 1 h, 2 h, 4 h, 6 h, 8 h, and 24 h after administration, placed in an anticoagulant tube added with EDTA-2K, and centrifuged at 3200 g for 10 minutes at 2 to 8° C. to separate the supernatant. Plasma concentrations were determined by LC-MS/MS method, and relevant pharmacokinetic parameters were calculated using Phoenix WinNonlin 6.3 pharmacokinetic software with non-compartmental model linear-log trapezoidal method.

[2] = Pharmacokinetic evaluation in mice, experimental operation B (C57BL/6N); format: in vivo; conditions: C57BL/6N mice
Description: as §1, with “study, CD-1 or C57BL/6N” for “study,”, “mice” for “cynomolgus monkeys”, “mice.” for “cynomolgus monkeys.”
CD-1 mice (male, 20 to 35 g, 7 to 10 weeks old, Beijing Vital River) or C57BL/6N mice (male, 20 to 30 g, 7 to 10 weeks old, Beijing Vital River)
A clarified solution or suspension of the test compound was injected into C57BL/6N mice (overnight fasting) via the tail vein (vehicle: 5% DMSO/10% Solutol/85% H2O), or intragastrically administered into C57BL/6N mice (overnight fasting). For intravenous injection, […] of blood was collected via the cheek puncture at 0 h (pre-administration) and 0.083 h, 0.25 h, 0.5 h, 1 h, 2 h, 4 h, 6 h, 8 h, and 24 h after administration, and placed in an anticoagulant tube added with heparin sodium. The mixture was thoroughly vortexed and mixed, and centrifuged at 6000 g for 3 minutes at 2 to 8° C. For oral administration, blood was collected via the cheek puncture at 0 h (pre-administration) and 0.083 h, 0.25 h, 1 h, 2 h, 4 h, 6 h, 8 h, and 24 h after administration, and placed in an anticoagulant tube added with heparin sodium. The mixture was thoroughly vortexed and mixed, and centrifuged at 6000 g for 3 minutes at 2 to 8° C. Plasma concentrations were determined by LC-MS/MS method, and relevant pharmacokinetic parameters were calculated using Phoenix WinNonlin 8.2.0 pharmacokinetic software with non-compartmental model linear-log trapezoidal method.

[3] = Intragastric administration (5 mg/kg)
[4] = Intragastric administration 10 mg/kg

With `O=C1CCC(c2noc3c(NC(=O)CN4CCN(C[C@H]5CC[C@H](n6cc(NC(=O)c7cnn8ccc(N9C[C@H]%10C[C@@H]9CO%10)nc78)c(C(F)F)n6)CC5)CC4)cccc23)C(=O)N1` (stereo partly shown) [Hydrochloride of WX015] the “Area under the drug-time curve (0-inf)” value [1, 3] was 1.14 µM·h, the Peak concentration [1, 3] was 0.14 µM and the “Time to peak concentration” value [1, 3] was 4.0 h. The “Area under the drug-time curve (0-inf)” value ([1]; Intravenous injection (0.5 mg/kg)) was 0.21 µM·h, the clearance ([1]; male, cynomolgus monkey, plasma, Intravenous injection (0.5 mg/kg)) was 48.5 mL/min/kg and the Vd ([1]; male, cynomolgus monkey, plasma, Intravenous injection (0.5 mg/kg), read-out: Apparent volume of distribution) was 8.83 L/kg. The half-life ([1]; male, cynomolgus monkey, plasma, Intravenous injection (0.5 mg/kg), read-out: Elimination half-life (converted)) was 2.33 h, the bioavailability ([1]; male, cynomolgus monkey, plasma, oral, IV 0.5 mg/kg, intragastric 5 mg/kg, read-out: Bioavailability F) was 55.5% and the “Area under the drug-time curve (0-inf)” value [2, 4] was 2.51 µM·h. The Peak concentration [2, 4] was 0.4 µM, the “Time to peak concentration” value [2, 4] was 1.33 h and the “Area under the drug-time curve (0-inf)” value ([2]; Intravenous injection 2 mg/kg) was 1.45 µM·h. The bioavailability ([2]; male, mouse, plasma, IV 2 mg/kg, PO 10 mg/kg, read-out: Bioavailability F) was 34.6%, the clearance ([2]; male, mouse, plasma, Intravenous injection 2 mg/kg) was 27.6 mL/min/kg and the Vd ([2]; male, mouse, plasma, Intravenous injection 2 mg/kg, read-out: Apparent volume of distribution) was 4.82 L/kg. For the same compound, the half-life ([2]; male, mouse, plasma, Intravenous injection 2 mg/kg, read-out: Elimination half-life (converted)) was 4.25 h.
